Assay results: the kinase profiling compilation of Christmann-Franck et al. (2016)

Columns and labels:
Assay in all cases: KINOMEscan competition binding
Settings in all cases: compound 10.0 µM
CDK9 (human) = CDK9 (human) (UniProt P50750)
[1] = system: EGFR (human), P00533 [T790M]
MUSK (human) = MUSK (human) (UniProt O15146)
DYRK1B (human) = DYRK1B (human) (UniProt Q9Y463)
FGFR2 (human) = FGFR2 (human) (UniProt P21802)
CIT (human) = CIT (human) (UniProt O14578)
PKN3 (M.tuberculosis) = PKN3 (M.tuberculosis) (UniProt Q6P5Z2)
PKN2 (human) = PKN2 (human) (UniProt Q16513)
STK25 (human) = STK25 (human) (UniProt O00506)
RPS6KA2 KD2 (human) = RPS6KA2 KD2 (human) (UniProt Q15349)
FLT3 (human) = FLT3 (human) (UniProt P36888)
CSNK1D (human) = CSNK1D (human) (UniProt P48730)
MAPK6 (human) = MAPK6 (human) (UniProt Q16659)
CSNK1G1 (human) = CSNK1G1 (human) (UniProt Q9HCP0)
RPS6KA1 KD2 (human) = RPS6KA1 KD2 (human) (UniProt Q15418)
RIPK4 (human) = RIPK4 (human) (UniProt P57078)
ACVR2B (human) = ACVR2B (human) (UniProt Q13705)
PAK4 (human) = PAK4 (human) (UniProt O96013)
INSR (human) = INSR (human) (UniProt P06213)
PRKCH (human) = PRKCH (human) (UniProt P24723)
PDPK1 (human) = PDPK1 (human) (UniProt O15530)
FES (human) = FES (human) (UniProt P07332)
STK17A (human) = STK17A (human) (UniProt Q9UEE5)
YSK4 (human) = YSK4 (human) (UniProt Q56UN5)
[2] = system: EGFR (human), P00533 [746-750 del]
MARK3 (human) = MARK3 (human) (UniProt P27448)
FGFR3 (human) = FGFR3 (human) (UniProt P22607)
IRAK3 (human) = IRAK3 (human) (UniProt Q9Y616)
SRPK1 (human) = SRPK1 (human) (UniProt Q96SB4)
BMPR1B (human) = BMPR1B (human) (UniProt O00238)
BMP2K (human) = BMP2K (human) (UniProt Q9NSY1)
ICK (human) = ICK (human) (UniProt Q9UPZ9)
RPS6KA5 KD2 (human) = RPS6KA5 KD2 (human) (UniProt O75582)
CDK3 (human) = CDK3 (human) (UniProt Q00526)
TEC (human) = TEC (human) (UniProt P42680)
MAP2K1 (human) = MAP2K1 (human) (UniProt Q02750)
[3] = molecular target: TYK2 JH1 catalytic (human) (UniProt P29597)
GSK3A (human) = GSK3A (human) (UniProt P49840)
WEE2 (human) = WEE2 (human) (UniProt P0C1S8)
ALK (human) = ALK (human) (UniProt Q9UM73)
[4] = system: ABL1 (human), P00519 [Y253F]
FER (human) = FER (human) (UniProt P16591)

Sequence of PRKCH (human) (P24723 whole entry, looked up): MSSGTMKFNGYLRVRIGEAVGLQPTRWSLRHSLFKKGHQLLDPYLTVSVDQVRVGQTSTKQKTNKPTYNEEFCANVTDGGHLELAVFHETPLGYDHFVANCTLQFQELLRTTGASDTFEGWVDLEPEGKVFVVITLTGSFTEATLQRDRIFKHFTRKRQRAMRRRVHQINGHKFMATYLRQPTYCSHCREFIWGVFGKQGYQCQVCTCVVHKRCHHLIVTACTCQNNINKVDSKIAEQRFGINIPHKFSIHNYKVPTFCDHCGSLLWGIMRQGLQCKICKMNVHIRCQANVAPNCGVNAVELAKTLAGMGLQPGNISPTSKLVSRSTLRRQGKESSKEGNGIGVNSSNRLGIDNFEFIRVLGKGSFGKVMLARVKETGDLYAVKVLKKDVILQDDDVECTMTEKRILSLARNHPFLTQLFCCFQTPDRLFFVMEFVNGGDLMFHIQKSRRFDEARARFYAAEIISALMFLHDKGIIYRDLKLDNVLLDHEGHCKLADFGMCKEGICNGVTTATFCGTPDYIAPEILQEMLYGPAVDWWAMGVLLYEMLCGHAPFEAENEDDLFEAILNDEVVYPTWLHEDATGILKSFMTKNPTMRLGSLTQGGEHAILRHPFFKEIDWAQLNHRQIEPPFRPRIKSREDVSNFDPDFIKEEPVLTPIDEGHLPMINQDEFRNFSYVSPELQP
Sequence of ALK (human) (Q9UM73 whole entry, looked up): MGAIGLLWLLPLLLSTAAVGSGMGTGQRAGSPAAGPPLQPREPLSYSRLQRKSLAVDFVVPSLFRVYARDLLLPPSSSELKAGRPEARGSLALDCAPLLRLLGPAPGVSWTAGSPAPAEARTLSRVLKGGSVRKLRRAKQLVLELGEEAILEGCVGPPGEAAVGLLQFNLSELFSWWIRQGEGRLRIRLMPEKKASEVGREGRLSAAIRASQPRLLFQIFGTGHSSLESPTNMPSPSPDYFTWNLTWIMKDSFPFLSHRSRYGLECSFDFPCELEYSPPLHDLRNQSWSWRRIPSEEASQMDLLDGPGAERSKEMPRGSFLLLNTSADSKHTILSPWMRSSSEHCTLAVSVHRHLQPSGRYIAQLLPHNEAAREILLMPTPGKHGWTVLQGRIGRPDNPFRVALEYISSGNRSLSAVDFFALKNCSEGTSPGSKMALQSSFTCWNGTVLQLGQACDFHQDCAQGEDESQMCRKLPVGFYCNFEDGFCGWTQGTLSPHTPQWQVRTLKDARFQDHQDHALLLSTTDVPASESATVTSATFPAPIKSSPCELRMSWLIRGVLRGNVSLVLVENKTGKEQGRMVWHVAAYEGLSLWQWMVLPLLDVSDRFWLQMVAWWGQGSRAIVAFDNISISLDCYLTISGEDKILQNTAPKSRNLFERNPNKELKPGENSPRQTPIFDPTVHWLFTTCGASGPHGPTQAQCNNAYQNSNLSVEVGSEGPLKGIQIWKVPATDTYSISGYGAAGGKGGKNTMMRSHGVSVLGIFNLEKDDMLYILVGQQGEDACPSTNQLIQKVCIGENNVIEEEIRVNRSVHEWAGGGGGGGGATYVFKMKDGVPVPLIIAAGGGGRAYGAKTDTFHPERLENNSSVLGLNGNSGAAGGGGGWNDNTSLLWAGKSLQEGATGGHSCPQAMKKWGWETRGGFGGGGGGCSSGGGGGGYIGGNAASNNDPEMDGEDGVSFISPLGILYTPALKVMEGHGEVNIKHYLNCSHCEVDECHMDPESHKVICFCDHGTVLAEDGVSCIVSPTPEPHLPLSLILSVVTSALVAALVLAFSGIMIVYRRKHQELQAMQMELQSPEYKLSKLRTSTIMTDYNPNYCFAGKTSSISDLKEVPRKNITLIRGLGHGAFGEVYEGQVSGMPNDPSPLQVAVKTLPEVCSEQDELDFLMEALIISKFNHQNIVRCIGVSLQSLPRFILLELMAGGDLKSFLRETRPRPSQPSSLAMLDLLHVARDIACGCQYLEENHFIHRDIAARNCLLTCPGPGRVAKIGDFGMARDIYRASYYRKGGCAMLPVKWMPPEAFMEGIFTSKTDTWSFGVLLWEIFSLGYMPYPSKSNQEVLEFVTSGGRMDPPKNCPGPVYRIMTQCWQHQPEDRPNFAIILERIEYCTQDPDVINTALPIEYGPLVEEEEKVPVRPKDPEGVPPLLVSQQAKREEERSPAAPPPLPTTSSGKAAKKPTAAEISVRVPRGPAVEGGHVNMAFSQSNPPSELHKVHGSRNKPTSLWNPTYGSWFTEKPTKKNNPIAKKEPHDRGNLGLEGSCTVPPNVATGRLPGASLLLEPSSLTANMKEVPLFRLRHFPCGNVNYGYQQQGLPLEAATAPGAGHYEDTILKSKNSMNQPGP
Sequence of PAK4 (human) (O96013 whole entry, looked up): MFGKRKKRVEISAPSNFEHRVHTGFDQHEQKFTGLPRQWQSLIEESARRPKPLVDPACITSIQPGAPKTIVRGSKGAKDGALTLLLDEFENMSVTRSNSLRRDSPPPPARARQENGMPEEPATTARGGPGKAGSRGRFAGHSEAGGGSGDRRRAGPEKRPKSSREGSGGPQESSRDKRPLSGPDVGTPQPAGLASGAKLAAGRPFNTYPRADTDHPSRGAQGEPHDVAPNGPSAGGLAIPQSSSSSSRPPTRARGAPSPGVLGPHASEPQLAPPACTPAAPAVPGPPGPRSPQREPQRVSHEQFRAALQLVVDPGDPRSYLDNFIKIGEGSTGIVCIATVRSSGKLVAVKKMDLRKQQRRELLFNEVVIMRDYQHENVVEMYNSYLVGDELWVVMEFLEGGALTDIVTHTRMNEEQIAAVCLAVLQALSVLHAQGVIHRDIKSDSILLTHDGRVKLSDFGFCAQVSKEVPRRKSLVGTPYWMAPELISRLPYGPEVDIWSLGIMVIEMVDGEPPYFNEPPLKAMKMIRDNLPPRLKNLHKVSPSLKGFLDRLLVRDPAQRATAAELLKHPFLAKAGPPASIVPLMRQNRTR
Sequence of CSNK1G1 (human) (Q9HCP0 whole entry, looked up): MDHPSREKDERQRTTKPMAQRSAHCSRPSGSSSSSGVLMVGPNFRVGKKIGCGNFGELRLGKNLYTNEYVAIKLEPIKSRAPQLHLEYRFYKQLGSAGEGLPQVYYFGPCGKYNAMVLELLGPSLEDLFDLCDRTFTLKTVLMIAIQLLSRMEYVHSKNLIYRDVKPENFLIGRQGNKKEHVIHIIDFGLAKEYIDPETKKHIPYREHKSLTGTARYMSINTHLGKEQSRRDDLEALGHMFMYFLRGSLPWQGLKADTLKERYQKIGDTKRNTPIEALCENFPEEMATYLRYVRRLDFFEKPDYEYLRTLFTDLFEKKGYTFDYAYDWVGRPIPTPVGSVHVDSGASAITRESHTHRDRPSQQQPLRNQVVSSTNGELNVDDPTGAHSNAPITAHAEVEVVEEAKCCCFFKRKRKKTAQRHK
Sequence of MAPK6 (human) (Q16659 whole entry, looked up): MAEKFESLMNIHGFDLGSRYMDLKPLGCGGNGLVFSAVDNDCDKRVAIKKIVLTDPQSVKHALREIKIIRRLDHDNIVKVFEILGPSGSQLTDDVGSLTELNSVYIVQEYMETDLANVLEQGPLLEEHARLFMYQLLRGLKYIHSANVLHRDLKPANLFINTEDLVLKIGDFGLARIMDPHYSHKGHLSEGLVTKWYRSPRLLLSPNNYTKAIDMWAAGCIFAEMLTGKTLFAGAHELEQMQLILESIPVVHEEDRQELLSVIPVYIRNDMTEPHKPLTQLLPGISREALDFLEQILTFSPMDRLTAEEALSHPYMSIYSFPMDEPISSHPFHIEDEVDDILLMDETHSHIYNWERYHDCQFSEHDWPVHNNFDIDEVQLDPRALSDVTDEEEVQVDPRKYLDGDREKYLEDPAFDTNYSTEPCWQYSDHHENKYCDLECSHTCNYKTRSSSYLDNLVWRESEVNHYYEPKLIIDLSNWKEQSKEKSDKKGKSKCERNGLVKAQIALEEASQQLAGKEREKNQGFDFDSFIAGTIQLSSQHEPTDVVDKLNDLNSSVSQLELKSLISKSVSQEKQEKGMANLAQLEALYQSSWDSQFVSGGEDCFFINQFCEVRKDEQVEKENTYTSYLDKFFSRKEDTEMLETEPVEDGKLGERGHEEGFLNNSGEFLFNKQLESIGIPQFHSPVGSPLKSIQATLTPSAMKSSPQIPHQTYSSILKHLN
Sequence of ICK (human) (Q9UPZ9 whole entry, looked up): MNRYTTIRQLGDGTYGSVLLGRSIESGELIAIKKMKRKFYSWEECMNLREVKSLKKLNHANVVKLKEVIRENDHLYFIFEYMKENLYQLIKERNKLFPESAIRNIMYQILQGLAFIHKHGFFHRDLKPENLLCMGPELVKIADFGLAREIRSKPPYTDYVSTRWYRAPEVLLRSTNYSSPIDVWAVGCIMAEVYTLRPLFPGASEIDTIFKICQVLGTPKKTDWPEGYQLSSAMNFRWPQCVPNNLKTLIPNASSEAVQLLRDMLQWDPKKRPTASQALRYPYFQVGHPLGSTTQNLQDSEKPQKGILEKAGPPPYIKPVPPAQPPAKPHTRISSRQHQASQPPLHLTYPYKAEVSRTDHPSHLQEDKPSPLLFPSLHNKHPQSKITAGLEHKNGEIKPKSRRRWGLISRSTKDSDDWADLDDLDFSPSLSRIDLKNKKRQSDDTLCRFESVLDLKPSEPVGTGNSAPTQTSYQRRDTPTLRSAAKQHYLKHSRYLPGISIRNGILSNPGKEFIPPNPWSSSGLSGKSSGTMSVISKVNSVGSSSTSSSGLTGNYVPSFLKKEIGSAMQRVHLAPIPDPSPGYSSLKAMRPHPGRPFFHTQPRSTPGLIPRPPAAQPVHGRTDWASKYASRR
Sequence of CDK3 (human) (Q00526 whole entry, looked up): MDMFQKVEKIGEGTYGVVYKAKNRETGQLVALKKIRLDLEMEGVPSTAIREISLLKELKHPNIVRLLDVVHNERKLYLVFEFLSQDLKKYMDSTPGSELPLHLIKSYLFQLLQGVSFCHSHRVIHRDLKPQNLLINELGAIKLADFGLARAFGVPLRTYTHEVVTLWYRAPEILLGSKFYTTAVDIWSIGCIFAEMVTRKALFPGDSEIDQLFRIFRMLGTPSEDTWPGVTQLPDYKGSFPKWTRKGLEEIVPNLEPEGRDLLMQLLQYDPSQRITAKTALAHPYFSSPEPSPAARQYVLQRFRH

## Cc1cc([C@@H](C)Nc2ccccc2C(=O)O)c2nc(N3CCOCC3)cc(=O)n2c1
CDK9 (human)
  kinase still bound, per cent of control: 89%
[1]
  kinase still bound, per cent of control: 100%
MUSK (human)
  kinase still bound, per cent of control: 100%
DYRK1B (human)
  kinase still bound, per cent of control: 100%
FGFR2 (human)
  kinase still bound, per cent of control: 100%
CIT (human)
  kinase still bound, per cent of control: 88%
PKN3 (M.tuberculosis)
  kinase still bound, per cent of control: 100%
PKN2 (human)
  kinase still bound, per cent of control: 74%
STK25 (human)
  kinase still bound, per cent of control: 100%
RPS6KA2 KD2 (human)
  kinase still bound, per cent of control: 100%
FLT3 (human)
  kinase still bound, per cent of control: 4.2%
CSNK1D (human)
  kinase still bound, per cent of control: 57%
MAPK6 (human)
  kinase still bound, per cent of control: 78%
CSNK1G1 (human)
  kinase still bound, per cent of control: 77%
RPS6KA1 KD2 (human)
  kinase still bound, per cent of control: 76%
RIPK4 (human)
  kinase still bound, per cent of control: 87%
ACVR2B (human)
  kinase still bound, per cent of control: 100%
PAK4 (human)
  kinase still bound, per cent of control: 95%
INSR (human)
  kinase still bound, per cent of control: 79%
PRKCH (human)
  kinase still bound, per cent of control: 95%
PDPK1 (human)
  kinase still bound, per cent of control: 100%
FES (human)
  kinase still bound, per cent of control: 100%
STK17A (human)
  kinase still bound, per cent of control: 87%
YSK4 (human)
  kinase still bound, per cent of control: 100%
[2]
  kinase still bound, per cent of control: 100%
MARK3 (human)
  kinase still bound, per cent of control: 95%
FGFR3 (human)
  kinase still bound, per cent of control: 100%
IRAK3 (human)
  kinase still bound, per cent of control: 75%
SRPK1 (human)
  kinase still bound, per cent of control: 100%
BMPR1B (human)
  kinase still bound, per cent of control: 89%
BMP2K (human)
  kinase still bound, per cent of control: 100%
ICK (human)
  kinase still bound, per cent of control: 100%
RPS6KA5 KD2 (human)
  kinase still bound, per cent of control: 100%
CDK3 (human)
  kinase still bound, per cent of control: 92%
TEC (human)
  kinase still bound, per cent of control: 91%
MAP2K1 (human)
  kinase still bound, per cent of control: 100%
[3]
  kinase still bound, per cent of control: 100%
GSK3A (human)
  kinase still bound, per cent of control: 100%
WEE2 (human)
  kinase still bound, per cent of control: 100%
ALK (human)
  kinase still bound, per cent of control: 100%
[4]
  kinase still bound, per cent of control: 100%
FER (human)
  kinase still bound, per cent of control: 81%
